Entries after “also recorded” stand apart in the source; their conditions may differ.
Assays:
cAMP = cAMP levels in hippocampal slices (Scintillation Proximity Assay); assay type: cell-based
Experimental: Hippocampal slices were treated with fisetin using the conditions where maximal stimulation of CREB phosphorylation and facilitation of LTP were observed. Briefly, hippocampal slices in ACSF were treated with 1 μM fisetin for 5 minutes (fisetin) or 3 μM rolipram for 30 minutes (rolipram) and then either immediately frozen or treated with […] forskolin for an additional 15 minutes (rolipram+forskolin; fisetin+forskolin) prior to freezing. Additional slices were treated only with 5 μM forskolin for 15 minutes (forskolin). Forskolin, an activator of adenylyl cyclase, and rolipram were used as positive controls. The levels of cAMP in the slices were measured using a Scintillation Proximity Assay and presented as pmole/mg protein±S.D.

CREB [1] = assay: CREB phosphorylation in hippocampal slices (immunoblotting, densitometry); assay type: cell-based, rat; conditions: for CREB phosphoprotein signal normalized to total protein: 1 μM
Experimental: (§1) Western blots panels A and B) of hippocampal slices treated with (A) 1 μM fisetin or (B) pretreated for 30 minutes with either 50 μM PD98059 (PD) or 10 μM U0126 (U) before the addition of 1 μM fisetin for 5 minutes, which blots were probed with the indicated antibodies.
(§2) Hippocampal slices in artificial cerebral spinal fluid (ACSF) were treated with either 1 μM fisetin for 5-20 minutes or pretreated for 30 minutes with either 50 μM PD98059 (PD) or 10 μM U0126 (J) before the addition of 1 μM fisetin for 5 minutes. Equal amounts of protein were analyzed by SDS-PAGE and immunoblotting with antibodies to phospho-ERK and phospho-CRFB along with antibodies to the unphosphorylated forms of the proteins. The average phosphoprotein signal from the blots was quantified by densitometry and normalized to total protein was plotted±S.D.

ERK = ERK activation in primary cortical neuron cultures (immunoblotting); assay type: cell-based, rat; conditions: 10 μM, 30 minutes to 6 hours
Experimental: (§3) The average phosphoprotein signal from the blots was quantified by densitometry and normalized to total protein,
(§4) Five (5) day old cortical cultures were next pretreated with 50 μM of the MEK inhibitor, PD98059, before the addition of 10 μM fisetin for 4 hours.
(§5) Primary cultures of rat cortical neurons were prepared as previously described by Li et al. (Neuron, 19:453-63, 1997, herein incorporated by reference as to the method). Analysis of ERK and CREB phosphorylation was performed using SDS-polyacrylamide gel electrophoresis and immunoblotting as previously described by Sagara et al. (J. Neurochem., 90:1144-1155, 2004) using equal amounts of protein from 5 day old cortical cultures. Blots were scanned and quantified using NIH Image. Results were analyzed using an unpaired Student's t-test.

PC12 cells = conditions: at 10 μM; Sagara et al. 2004; cited from earlier work
ERK1 (p44) = ERK1 (p44) phosphorylation in hippocampal slices (immunoblotting, densitometry); assay type: cell-based, rat; conditions: for p44 phosphoprotein signal normalized to total protein: 1 μM
Experimental: as §1, §2

protein kinase A = conditions: PC12 cells; Sagara et al. 2004; cited from earlier work
Rabbits = assay: Small blood clot embolism model of brain ischemia (P50); assay type: in vivo; conditions: 50 mg/kg intravenously, bolus 5 minutes after embolization; 24 hours post-embolism
Experimental: Rabbits were embolized with small blood clots of varying size (from about 1 mg to about 4 mg) according to the procedure described by Lapchak et al. (Exp. Neurol., 188.279-285, 2004). […] In some subjects, fisetin treatment (50 mg/kg delivered intravenously) was given as a bolus 5 minutes after embolization. Twenty four (24) hours later, a naïve observer rated each treated or control animal as either behaviorally normal or abnormal. Rabbits judged “abnormal” included those with at least one of the following symptoms: ataxia, leaning, circling, lethargy, nystagmus, loss of balance, loss of sensation and occasionally paraplegia. […] The effective stroke dose or P50 value was then calculated as the amount of microclots (in mg) that produce behavioral impairment in 50% of the animals within a specific treatment group.

Sprague-Drawley rats = assay: Morris water maze (spatial learning and memory); assay type: in vivo; conditions: 25 mg/kg by gavage
Experimental: This example describes use of the Morris water maze (MWM) to examine hippocampus-dependent spatial learning and memory in rats. The standard test consists of two parts; a training phase, which measures the ability of the animals to learn where a hidden platform is located within an opaque pool of water and a probe test, which is performed 24 hours after the last training trial and measures the ability of the animals to remember the location of the platform (Vorhees & Williams, Nature Protocols 1.848-58, 2(006))
To test whether oral administration of fisetin could increase spatial learning and/or memory, young male Sprague-Drawley rats (8 weeks old) were administered fisetin by gavage (25 mg/kg) beginning one day before the training phase and continuing throughout the 8 days of training. The rats were given four trials a day for 8 days. Retention of the spatial training was assessed 24 hours after the last training trial. The probe trial consisted of a 60 second free swim in the pool without the platform. Both the training and probe trials were monitored by a video camera mounted above the pool and all data were analyzed by software provided with the video-tracking program.

[2] = test system: CA1 area of rat hippocampal slices; assay: Long-term potentiation in CA1 area of hippocampal slices; assay type: cell-based
CREB [3] = assay: CREB activation in primary cortical neuron cultures (immunoblotting); assay type: cell-based, rat; conditions: 10 μM, 30 minutes to 6 hours
Experimental: as §3, §4, §5

C57BL/6 mice = assay: MPTP-induced striatal dopamine loss; assay type: in vivo
Experimental: C57BL/6 mice from about 11 to 12 week old (20-25 g) were injected with a single dose of […] 1-methyl-4-phenyl-1,2,3,6-tetrahydropyridine (MPTP). MPTP is toxic to dopaminergic neurons in the substantia nigra, and produces many of the symptoms of Parkinson's disease. MPTP-treated mice have long been used as a model of human Parkinson's disease (see, e.g., reviews by Smeyne and Jackson-Lewis, Brain Bes. Mol. Brain Res., 134(1):57-66, 2005; Tetrud and Langston, Acta Neurol. Scand. Suppl., 126:35-40, 1989). After 8 days, the animals were euthanized and the striata dissected and assayed for dopamine content by HPLC combined with electrochemical detection, as previously described (Irwin e/al., Brain Res., 572:224-231, 1992). One group of untreated mice (n=4) and one group of MPTP-treated mice (n=4) received orally administered fisetin (25 mg/kg) beginning one day before treatment groups received MPTP and continuing for the same time period as MPTP treatment in treatment groups. Mice untreated with MPTP or fisetin (control) and mice treated with MPTP alone were also examined.

[4] = weak tetanic stimulation 15 pulses at 100 Hz

O=c1c(O)c(-c2ccc(O)c(O)c2)oc2cc(O)ccc12 [fisetin, 3,3′,4′,7-tetrahydroxyflavone]
effect on cAMP levels by itself (cAMP; 1 μM fisetin 5 minutes, 3 μM rolipram 30 minutes): no effect; also recorded: does not increase cAMP levels | potentiation of the effect of forskolin on cAMP levels (cAMP; then 5 μM forskolin for 15 minutes): nor did it potentiate | CREB phosphoprotein signal normalized to total protein (CREB [1]; 5 min): 2.87±0.56 | CREB phosphoprotein signal normalized to total protein (CREB [1]; 10 min): 2.72±0.12 | CREB phosphoprotein signal normalized to total protein (CREB [1]; 20 min): 2.55±0.39 | increase in CREB phosphorylation (CREB [1]; hippocampal slices, fisetin): ~3 fold | ERK activation (ERK): induced ERK activation | differentiation of the cells induced (PC12 cells): 75-80% | p44 phosphoprotein signal normalized to total protein (ERK1 (p44); 5 min): 1.98±0.16 | p44 phosphoprotein signal normalized to total protein (ERK1 (p44); 10 min): 1.48±0.02 | p44 phosphoprotein signal normalized to total protein (ERK1 (p44); 20 min): 1.30±0.09 | increase in ERK 1 phosphorylation (ERK1 (p44); hippocampal slices, 1 μM fisetin): 2 fold | activation of the cAMP target protein kinase A (protein kinase A): does not result in the activation | P50 value (mg clot that produce behavioral deficits in 50% of the animals) (Rabbits): 2.18 ± 0.42 mg | effect on swim speed or thigmotaxis (Sprague-Drawley rats): no significant effect | ability of the rats to learn the location of the hidden platform (Sprague-Drawley rats; 8 days of training): no clear effect | probe test: time in the quadrant where the platform had been located (spatial memory) (Sprague-Drawley rats; 24 hours after last training trial, vs vehicle): significantly more time; also recorded: enhances spatial memory | induction of LTP following weak tetanic stimulation ([2]; 15 pulses at 100 Hz, fisetin 20 minutes prior to, during and after): LTP was induced; also recorded: facilitates the induction of LTP | effect on APV-dependent inhibition of excitatory postsynaptic potentials ([2]; in the presence of APV): no effect | effect on basal synaptic transmission ([2]; no tetanus): no direct effect | maximal effective dose for facilitation of LTP induction [2, 4]: 1 µM | persistence of facilitated LTP [2, 4]: at least 60 minutes | CREB activation (CREB [3]): enhanced CREB activation | striatal dopamine concentration (C57BL/6 mice; MPTP and fisetin 25 mg/kg oral): at least as high as control | striatal dopamine concentration (C57BL/6 mice; fisetin alone 25 mg/kg oral, no MPTP): highest concentrations of striatal dopamine
